Square brackets hold non-standard residues; d marks the D form. Ends that are not written are not given here. Peptide text beside a SMILES is read from it.
Legend:
B. cereus = format: cell-based; conditions: pH 7.2
Outline: (§1)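 Single-well growth assay: peptide + bacteria (~5×10^6 CFU/ml) in 10 mM phosphate pH 7.2/0.03% LB, 3 h 37 °C; add LB, overnight; OD600. MIC = lowest conc., no growth; IC50 = 50% growth vs medium.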

E. coli DH5a = format: cell-based; conditions: DH5a, pH 7.2
Outline: as §1

Salmonella = format: cell-based, S. typhimurium; conditions: pH 7.2
Outline: as §1

bacteria [1] = assay: Activity in DMEM and RPMI media (lysis of bacteria); format: cell-based; set-up: key to Active in DMEM: YES: Active in DMEM; a blank means no activity; conditions: for Active in DMEM: Table 2, tested in DMEM and RPMI; for antimicrobial / antibacterial activity: medium not stated
Experimental: (§2) The CFU assay is the “gold standard” for evaluating antibiotics. Briefly, bacteria are grown overnight in rich medium, such as LB, and then diluted and grown in log phase for 2-4 hours. Cultures are set up as above, with the initial culture media being 10 mM phosphate buffer/0.03% LB; DMEM or RPMI; or DMEM or RPMI plus 10% serum (fetal calf, human, or mouse). After various periods of time, but generally 3 hours or less, aliquots are removed, diluted in LB at various dilutions, and plated on LB agar plates. Plates are incubated overnight at 37° C. and counted on an automatic colony counter.
In the column “Active in DMEM”, a blank means no activity. MAP stands for multiple antigenic peptide, where a number of identical peptide chains are synthesized and joined to a common core (like a dendrimer).
The peptides listed in Table 2 were tested in DMEM and RPMI, media that approximate blood and tissue conditions in vivo and those that were active under these conditions are listed in the last column (active in DMEM). […] No peptides that were all L-isomer peptides lysed bacteria in DMEM supplemented with serum.
The hydrophobic moment is a measure of amphipathicity and indicates how well the hydrophobic residues fall on one side of the helix while the hydrophilic residues fall on the opposite side is shown in column 7. This was determined using the Membrane Explorer Program (http://blanco.biomol.uci.edu/mpex/). A high number indicates a high hydrophobic moment. Column 8 again (like Table 2) indicates which of these peptides is active in DMEM.

bacteria [2] = assay: Activity in serum containing media (10% FCS in DMEM or RPMI); format: cell-based; conditions: 10% FCS in DMEM or RPMI
Experimental: as §2
Tests were conducted in low salt concentrations so that active peptide candidates could be identified more readily. It is important for in vivo applications that the present antimicrobial peptides be active in physiological salt concentrations (150 mM) as well as in the presence of other tissue components, such as blood plasma (serum). Serum may contain proteases that destroy peptides; the use of D-amino acids can improve protease resistance. See G12.21. […] Also active were G11.6, G11.26, G11.29, G11.30, G11.34, G11.35, G12.11, G12.19, G12.20 and G12.21. […]

| Molecule | B. cereus MIC (B. cereus) | IC50 (B. cereus) | E. coli DH5a MIC (E. coli DH5a) | IC50 (E. coli DH5a) | IC50 (Salmonella) | Salmonella MIC (Salmonella) | Active in DMEM (bacteria [1]) | active in serum containing media (bacteria [2]) | antimicrobial / antibacterial activity (bacteria [1]) |
| --- | --- | --- | --- | --- | --- | --- | --- | --- | --- |
| CSCC[C@@H]1NC(=O)[C@H](Cc2ccccc2)NC(=O)[C@H](CCCCN)NC(=O)[C@H](CCCCN)NC(=O)[C@H](CO)NC(=O)[C@H](C(C)C)NC(=O)[C@H](CCCCN)NC(=O)[C@H](CCCCN)NC(=O)[C@H](CC(N)=O)NC(=O)[C@H](CCCCN)NC(=O)[C@H](CCCCN)NC(=O)[C@H](CCSC)NC(=O)[C@H](Cc2ccccc2)NC(=O)[C@H](CCCCN)NC(=O)[C@H](CCCCN)NC(=O)[C@H](CO)NC(=O)[C@H](C(C)C)NC(=O)[C@H](CCCCN)NC(=O)[C@H](CCCCN)NC(=O)[C@H](CO)NC(=O)CNC(=O)[C@H](CCCCN)NC(=O)[C@H](CCCCN)NC1=O [G11.32 CYC] | 0.35 µM | 210 nM | 0.35 µM | 200 nM | 210 nM | 0.35 µM | YES | – | – |
| CSCC[C@H](NC(=O)[C@H](Cc1ccccc1)NC(=O)[C@@H](CCCNC(=N)N)NC(=O)[C@@H](CCCNC(=N)N)NC(=O)[C@H](CO)NC(=O)[C@@H](NC(=O)[C@H](CC(=O)O)NC(=O)[C@H](CCCNC(=N)N)NC(=O)[C@H](Cc1c[nH]c2ccccc12)NC(=O)[C@H](CCCNC(=N)N)NC(=O)[C@H](CO)NC(=O)[C@H](CCCNC(=N)N)NC(=O)CNC(=O)[C@@H](NC(=O)[C@H](CCCNC(=N)N)NC(=O)[C@H](CO)NC(=O)[C@@H](NC(=O)[C@H](CCCNC(=N)N)NC(=O)[C@@H](NC(=O)[C@@H](C)NC(=O)[C@@H](C)NC(=O)[C@H](CCCNC(=N)N)NC(=O)[C@H](CO)NC(=O)[C@@H](NC(=O)[C@H](CO)NC(=O)[C@H](CCCNC(=N)N)NC(=O)[C@@H](N)CCC(N)=O)C(C)C)[C@@H](C)O)C(C)C)[C@@H](C)O)C(C)C)C(=O)N[C@@H](CCCNC(=N)N)C(=O)N[C@@H](CCCNC(=N)N)C(=O)O [Peptide G8.8, QRSVSRaaTRVSRTGRSRWRDVSrrFMRR] (H-QRSVSR[dA][dA]TRVSRTGRSRWRDVS[dR][dR]FMRR-OH; N-terminus and C-terminus assumed) | 2.5 µM | 1700 nM | 0.35 µM | 210 nM | 420 nM | 0.7 µM | YES | active | – |
| CSCC[C@H](NC(=O)[C@H](Cc1ccccc1)NC(=O)[C@@H](CCCNC(=N)N)NC(=O)[C@@H](CCCNC(=N)N)NC(=O)[C@H](CO)NC(=O)[C@@H](NC(=O)[C@H](CC(=O)O)NC(=O)[C@H](CCCNC(=N)N)NC(=O)[C@H](Cc1c[nH]c2ccccc12)NC(=O)[C@H](CCCNC(=N)N)NC(=O)[C@H](CO)NC(=O)[C@H](CCCNC(=N)N)NC(=O)CNC(=O)[C@@H](NC(=O)[C@H](CCCNC(=N)N)NC(=O)[C@H](CO)NC(=O)[C@@H](NC(=O)[C@H](CCCNC(=N)N)NC(=O)[C@@H](NC(=O)[C@@H]1CCCN1C(=O)[C@@H]1CCCN1C(=O)[C@H](CCCNC(=N)N)NC(=O)[C@H](CO)NC(=O)[C@@H](NC(=O)[C@H](CO)NC(=O)[C@H](CCCNC(=N)N)NC(=O)[C@@H](N)CCC(N)=O)C(C)C)[C@@H](C)O)C(C)C)[C@@H](C)O)C(C)C)C(=O)N[C@@H](CCCNC(=N)N)C(=O)N[C@@H](CCCNC(=N)N)C(=O)O [Peptide G8.11] (H-QRSVSRPPTRVSRTGRSRWRDVS[dR][dR]FMRR-OH; N-terminus and C-terminus assumed) | 0.75 µM | 450 nM | 0.35 µM | 210 nM | 220 nM | 0.35 µM | YES | active | – |
| CSCC[C@H](NC(=O)[C@H](Cc1ccccc1)NC(=O)[C@@H](CCCNC(=N)N)NC(=O)[C@@H](CCCNC(=N)N)NC(=O)[C@H](CO)NC(=O)[C@H](NC(=O)[C@@H](CCCNC(=N)N)NC(=O)[C@@H](N)CCCNC(=N)N)C(C)C)C(=O)N[C@H](CCCNC(=N)N)C(=O)N[C@@H](CCCNC(=N)N)C(=O)O [Peptide G11.34, RrvSrrFMrR] (H-R[dR][dV]S[dR][dR]FM[dR]R-OH; N-terminus and C-terminus assumed) | >10 µM | > 10000 nM | 0.7 µM | 410 nM | 1600 nM | 2.8 µM | YES | active | – |
| CSCC[C@@H](NC(=O)[C@H](Cc1ccccc1)NC(=O)[C@@H](CCCNC(=N)N)NC(=O)[C@@H](CCCNC(=N)N)NC(=O)[C@H](CO)NC(=O)[C@H](NC(=O)[C@H](CCCNC(=N)N)NC(=O)[C@@H](N)CCCNC(=N)N)C(C)C)C(=O)N[C@@H](CCCNC(=N)N)C(=O)N[C@@H](CCCNC(=N)N)C(=O)O [Peptide G11.35, RRvSrrFmRR] (H-RR[dV]S[dR][dR]F[dM]RR-OH; N-terminus and C-terminus assumed) | >10 µM | > 10000 nM | 0.7 µM | 410 nM | 3250 nM | 5.7 µM | YES | active | – |
| CC(C)C[C@@H](NC(=O)[C@@H](CCCNC(=N)N)NC(=O)[C@@H](CCCNC(=N)N)NC(=O)[C@H]1CCCN1C(=O)[C@@H](CCCNC(=N)N)NC(=O)[C@@H](CCCNC(=N)N)NC(=O)[C@@H](CO)NC(=O)[C@@H](CCCNC(=N)N)NC(=O)[C@@H](Cc1ccc(O)cc1)NC(=O)[C@@H](CCCNC(=N)N)NC(=O)[C@@H](CCCNC(=N)N)NC(=O)[C@H]1CCCN1C(=O)[C@H]1CCCN1C(=O)[C@H]1CCCN1C(=O)[C@@H](CCCNC(=N)N)NC(=O)[C@@H](CO)NC(=O)[C@H](NC(=O)[C@@H](CCCNC(=N)N)NC(=O)[C@H](N)CCCNC(=N)N)C(C)C)C(=O)N[C@@H](C(=O)O)C(C)C [Peptide G12.25, rrvsrppprryrsrrprrlv] (H-[dR][dR][dV][dS][dR][dP][dP][dP][dR][dR][dY][dR][dS][dR][dR][dP][dR][dR][dL][dV]-OH; N-terminus and C-terminus assumed) | <.078 µM | < 78 nM | 0.15 µM | < 78 nM | 100 nM | 1.25 µM | YES | – | has lost much of its antibacterial activity |
| CSCC[C@@H](NC(=O)[C@H]1CCCN1C(=O)[C@H]1CCCN1C(=O)[C@@H](CCCNC(=N)N)NC(=O)[C@@H](CO)NC(=O)[C@H](NC(=O)[C@@H](CCCNC(=N)N)NC(=O)[C@H](N)CCCNC(=N)N)C(C)C)C(=O)N[C@H](CCCNC(=N)N)C(=O)N[C@H](CCCNC(=N)N)C(=O)N[C@H](Cc1ccc(O)cc1)C(=O)N[C@H](CCCNC(=N)N)C(=O)N[C@H](CO)C(=O)N[C@H](CCCNC(=N)N)C(=O)N[C@H](CCCNC(=N)N)C(=O)N1CCC[C@@H]1C(=O)N[C@H](CCCNC(=N)N)C(=O)N[C@H](CCCNC(=N)N)C(=O)N[C@H](CC(C)C)C(=O)N[C@@H](C(=O)O)C(C)C [Peptide G12.26, rrvsrppmrryrsrrprrlv] (H-[dR][dR][dV][dS][dR][dP][dP][dM][dR][dR][dY][dR][dS][dR][dR][dP][dR][dR][dL][dV]-OH; N-terminus and C-terminus assumed) | 0.35 µM | < 78 nM | <.078 µM | < 78 nM | 100 nM | 0.3 µM | YES | – | loses some antibacterial activity compared to G12.21 |
| GRSRWRRVSRRFMRR [Peptide G14.11, GRSRWRRVSRRFMRR] | 0.7 µM | 450 nM | 0.7 µM | 450 nM | 440 nM | 0.65 µM | YES | – | – |
| QRSVSRAATRVSRTGRSRWRRVSRRFMRR [Peptide G8.9] | 0.7 µM | 450 nM | 0.7 µM | 450 nM | 220 nM | 0.35 µM | YES | – | – |
| QRSVSRPPTRVSRTGRSRWRDVSRRFMRR [Peptide G8.12] | 0.35 µM | 210 nM | 0.35 µM | 210 nM | 210 nM | 0.35 µM | YES | – | – |
| RRVSRRFMRRD-NH2 [G11.30 CYC, RRVSRRFMRRD] | >10 µM | 7550 nM | 5.7 µM | 3500 nM | 7700 nM | >10 µM | – | active | – |

— patent US7745390B2, “Antimicrobial peptides” (priority 2005, dated 2010)
